In patent US20250257134A1, “THERAPEUTIC AND DIAGNOSTIC METHODS FOR BLADDER CANCER” (Genentech, Inc., priority 2022, published 2025):

Columns and labels:
[1] = system: patients with metastatic urothelial carcinoma (mUC); test: Post hoc analysis of IMvigor130 biomarker-evaluable population: PD-L1 IHC assays (SP142, 22C3) and OS; assay type: in vivo, human
Excerpt: Clinically relevant biomarkers are needed to predict outcomes with immunotherapy in metastatic urothelial carcinoma (mUC). Different PD-L1 assays use various methods (e.g., scoring tumor and/or immune cells) to evaluate anti-PD-L1/PD-1 outcomes. […] Thus, it was hypothesized that the SP142 and 22C3 assays may be differentially associated with OS in IMvigor130 patients, which may be related to PD-L1 localization on specific immune cells such as dendritic cells (DCs). This Example describes a post hoc analysis that studied associations between two PD-L1 IHC assays (i.e., VENTANA SP142 and Dako 22C3) and OS in the biomarker-evaluable population of the IMvigor130 study.
The biomarker-evaluable population in this analysis consisted of patients with archival tumors in Arms B and C (Jun. 14, 2020 cutoff) (Galsky et al. Cancer Res. 81 (13_Supplement): CT042, 2021). Formalin-fixed paraffin-embedded (FFPE) tumor specimens from eligible IMvigor130 study patients were prospectively tested for PD-L1 IHC expression by a central laboratory prior to randomization (see, Example 1 for additional information). The IHC scores had three categories (IC0, IC1, IC2/3). The study enrolled all eligible patients whose tissue is evaluable for expression testing, regardless of PD-L1 expression status.
PD-L1 expression was evaluated by IHC (CellCarta) using the SP142 (Ventana) and 22C3 (Dako) assays in 322 patients treated with atezolizumab monotherapy (Arm B) and 305 patients treated with placebo+platinum-based chemotherapy (Arm C). Samples were also stained for IC subtypes. Assay cutoffs for the SP142 assay were IC ≥5% (IC2/3) and <5% (IC0/1). For the 22C3 assay, cutoffs were CPS ≥10 and <10.
A subset of tumor samples were also stained by IHC for the dendritic cell marker DC-LAMP (Clone 1010E1.01, Novus Biologicals). In silico deconvolution by xCell (Aran et al. Genome Biol. 18 (1): 220, 2017) was performed. Statistical analysis was performed to compare OS between subgroups using the stratified log-rank test.

[2] = system: patients with untreated locally advanced or metastatic urothelial carcinoma; test: Phase III IMvigor130 study: overall survival, atezolizumab monotherapy (Arm B) vs placebo + platinum-based chemotherapy (Arm C); assay type: in vivo, human; conditions: 1L mUC, May 31, 2019 cutoff
Excerpt: This Example describes the IMvigor130 study, which is a Phase III, multicenter, randomized, placebo-controlled, partially blind study designed to evaluate the efficacy of atezolizumab given as monotherapy or in combination with platinum-based chemotherapy versus placebo in combination with platinum-based chemotherapy in patients with locally advanced or metastatic urothelial carcinoma who have not received prior systemic therapy.
The primary efficacy objective for this study is to evaluate the efficacy of atezolizumab plus platinum-based chemotherapy compared with placebo plus platinum-based chemotherapy on the basis of the following endpoints: • Co-primary endpoints of progression-free survival (PFS) and overall survival (OS) • PFS is defined as the time from randomization to the first documented disease progression as determined by the investigator with use of RECIST v1.1, or death due to any cause, whichever occurs first. • OS is defined as the time from randomization to death due to any cause. […]
Randomization was stratified by the following factors: • PD-L1 status (IC0 (<1%) vs. IC1 (≥1% and <5%) vs. IC2/3 (≥5%)). • Bajorin model risk factor score/liver metastasis (0 vs. 1 vs. 2 or patients with liver metastasis). • Investigator-determined chemotherapy (gemcitabine and carboplatin vs. gemcitabine and cisplatin). […]

[3] = patients receiving atezolizumab monotherapy, biomarker-evaluable population, Jun. 14, 2020 cutoff
[4] = untreated locally advanced or metastatic UC

Substance: atezolizumab: Fc-engineered, humanized, non-glycosylated IgG1 kappa immunoglobulin that binds PD-L1; heavy chain SEQ ID NO: 1, light chain SEQ ID NO: 2
- OS HR by 22C3 CPS scoring (CPS ≥10 versus CPS <10) [1, 3]: 0.83 (0.63, 1.10)
- OS HR by SP142 scoring (IC2/3 versus IC0/1) [1, 3]: 0.55 (0.39, 0.77)
- OS in SP142 IC2/3 versus IC0/1 tumours ([1]; patients with mUC): longer OS
- OS by combined tumor status SP142 IC0/1 + 22C3 CPS ≥10 [1, 4]: shorter OS
- OS by combined tumor status SP142 IC2/3 + 22C3 CPS ≥10 (double positive) [1, 4]: longer OS
- overall survival (OS) HR, atezolizumab monotherapy (Arm B) versus placebo+platinum-based chemotherapy (Arm C) ([2]; PD-L1 IC2/3 by SP142 IHC assay): 0.68
- overall survival (OS) HR, atezolizumab monotherapy (Arm B) versus placebo+platinum-based chemotherapy (Arm C) ([2]; PD-L1 IC2/3 cisplatin ineligible): 0.53
